Results reported in patent publication US6413245B1, “Sub-tenon drug delivery” (Alcon Universal Ltd., priority 1999, dated 2002).

Assay: Retinal concentration of angiostatic steroid after sub-Tenon drug depot in rabbit eyes
Assay type: in vivo
Details: drug depot on outer surface of sclera, slightly posterior of the equator, measured the day after the injection, New Zealand White rabbits
From the text: Sclera 16 and Tenon's capsule 34 define the exterior surface of the globe of eye 10. For treatment of ARMD, CNV, retinopathies, retinitis, uveitis, cystoid macular edema (CME), glaucoma, and other diseases or conditions of posterior segment 26, it is preferable to dispose a depot 38 of a specific quantity of an ophthalmically acceptable pharmaceutically active agent directly on the outer surface of sclera 16 and below Tenon's capsule 34. In addition, in cases of ARMD and CME it is most preferable to dispose depot 38 directly on the outer surface of sclera 16, below Tenon's capsule 34, and generally above macula 30. In a study using New Zealand White rabbits, a drug depot of 4,9(11)-Pregnadien-17α,21-diol-3,20-dione-21-acetate, an angiostatic steroid available from Steraloids, Inc. of Wilton, New Hampshire, was disposed directly on the outer surface of the sclera, below the Tenon's capsule, and slightly posterior of the equator of the rabbit eyes. […] Given the fact that the Tenon's capsule of a New Zealand White rabbit is very thin, these beneficial results are highly unexpected. It is important to note that Tenon's capsule 34 of human eye 10 is also very thin. […]

concentration of the angiostatic steroid, averaged over the entire retina, relative to a depot located below the conjunctiva but above the Tenon's capsule: about ten times greater
SMILES: CC(=O)OCC(=O)[C@@]1(O)CC[C@H]2[C@@H]3CCC4=CC(=O)CC[C@]4(C)C3=CC[C@@]21C [4,9(11)-Pregnadien-17α,21-diol-3,20-dione-21-acetate]
